In this assay the target is GST-MEK (p45MEK) and GST-MAPK (p44MAP kinase) (Homo sapiens, UniProt Q02750). In words: Cascade assay for inhibitors of the MAP kinase pathway (In Vitro). The class given is biochemical. The settings on record: incorporation of 32P into myelin basic protein. The method, then:
Cascade Assay for Inhibitors of the MAP Kinase Pathway
Incorporation of ^32P into myelin basic protein (MBP) was assayed in the presence of a glutathione S-transferase fusion protein containing p44MAP kinase (GST-MAPK) and a glutathione S-transferase fusion protein containing p45MEK (GST-MEK). The assay solution contained 20 mM HEPES, pH 7.4, 10 mM MgCl2, 1 mM MnCl2, 1 mM EGTA, 50 μM [γ-^32P]ATP, 10 μg GST-MEK0.5 μg GST-MAPK and 40 μg MBP in a final volume of 100 μL. Reactions were stopped after 20 minutes by addition of trichloroacetic acid and filtered through a GF/C filter mat. ^32P retained on the filter mat was determined using a 1205 Betaplate. Compounds were assessed at 10 μM for ability to inhibit incorporation of ^32P.
To ascertain whether compounds were inhibiting GST-MEK or GST MAPK, two additional protocols were employed. In the first protocol, compounds were added to tubes containing GST-MEK, followed by addition of GST-MAPK, MBP and [γ-^32P]ATP. In the second protocol, compounds were added to tubes containing both GST-MEK and GST-MAPK, followed by MBP and [γ-^32P]ATP.
Sequence of GST-MEK (p45MEK) and GST-MAPK (p44MAP kinase) (Q02750 whole entry): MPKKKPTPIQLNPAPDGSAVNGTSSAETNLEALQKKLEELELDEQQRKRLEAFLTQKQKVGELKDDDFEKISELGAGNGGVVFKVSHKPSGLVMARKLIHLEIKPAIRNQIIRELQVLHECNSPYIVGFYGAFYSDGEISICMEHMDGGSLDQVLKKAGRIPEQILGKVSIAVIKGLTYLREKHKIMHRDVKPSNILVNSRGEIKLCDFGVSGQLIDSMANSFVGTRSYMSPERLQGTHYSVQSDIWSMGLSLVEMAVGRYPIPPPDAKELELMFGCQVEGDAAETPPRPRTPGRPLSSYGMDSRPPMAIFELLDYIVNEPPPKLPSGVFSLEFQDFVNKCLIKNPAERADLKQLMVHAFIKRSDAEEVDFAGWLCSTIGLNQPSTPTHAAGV
As a reminder, the IC50 is the concentration that inhibits the measured activity by half. Read a low IC50 as greater potency. `Cc1cc(I)ccc1Nc1cc(F)ccc1C(=O)O` [Example 1, 4-Fluoro-2-(4-iodo-2-methylphenylamino)benzoic acid] gave an IC50 of 19 nM.
To `Cc1cc(I)ccc1Nc1c(C(=O)O)cc(F)c(F)c1F` [Example 2, 3,4,5-Trifluoro-2-(4-iodo-2-methyl-phenylamino)-benzoic acid] belongs 14 nM.
Then `Cc1cc(I)ccc1Nc1c(C(=O)O)ccc(F)c1F` [Example 3, 3,4-Difluoro-2-(4-iodo-2-methyl-phenylamino)-benzoic acid], with 11.1 nM; and `Cc1cc(I)ccc1Nc1c(C(=O)O)cc(Br)c(F)c1F` [Example 4, 5-Bromo-3,4-difluoro-2-(4-iodo-2-methyl-phenylamino)-benzoic acid], with 5 nM; and `O=C(O)c1cc(Cl)ccc1Nc1ccc(I)cc1Cl` [Example 5, 5-Chloro-2-(2-chloro-4-iodo-phenylamino)--benzoic acid], with 66 nM.
Then `Cc1cc(I)ccc1Nc1ccc(Cl)cc1C(=O)O` [Example 6, 5-Chloro-2-(4-iodo-2-methyl-phenylamino)-benzoic acid], with 71 nM; and `Cc1cc(I)ccc1Nc1ccc(Cl)cc1C(=O)[O-].[Na+]` [Example 7, Sodium 5-Chloro-2-(4-iodo-2-methyl-phenylamino)-benzoate], with 72 nM.
The compound `Cc1cc(I)ccc1Nc1ccc(Br)cc1C(=O)O` [Example 8, 5-Bromo-2-(4-iodo-2-methyl-phenylamino)-benzoic acid] registered a half-inhibitory concentration (IC50) of 86 nM.
To `O=C(O)c1cc([N+](=O)[O-])ccc1Nc1ccc(I)cc1Cl` [Example 9, 2-(2-Chloro-4-iodo-phenylamino)-5-nitro-benzoic acid] belongs 97 nM; to `Cc1c(Nc2cc(F)ccc2C(=O)O)ccc(I)c1F` [Example 10, 4-Fluoro-2-(3-fluoro-4-iodo-2-methyl-phenylamino)-benzoic acid], 101 nM; to `Cc1cc(I)ccc1Nc1ccc([N+](=O)[O-])cc1C(=O)O` [Example 11, 2-(4-Iodo-2-methyl-phenylamino)-5-nitro-benzoic acid], 128 nM.
Then `O=C(O)c1cc([N+](=O)[O-])ccc1Nc1ccc(I)cc1F` [Example 12, 2-(2-Fluoro-4-iodo-phenylamino)-5-nitro-benzoic acid], with 135 nM.
Then `Cc1cc(Br)ccc1Nc1cc(F)ccc1C(=O)O` [Example 13, 2-(4-Bromo-2-methyl-phenylamino)-4-fluoro-benzoic acid], with 178 nM; and `O=C(O)c1cc([N+](=O)[O-])ccc1Nc1ccc(I)cc1Br` [Example 14, 2-(2-Bromo-4-iodo-phenylamino)-5-nitro-benzoic acid], with 179 nM; and `Cc1cc(Br)ccc1Nc1c(C(=O)O)ccc(F)c1F` [Example 15, 2-(4-Bromo-2-methyl-phenylamino)-3,4-difluoro-benzoic acid], with 194 nM.
As for `Cc1cc(I)ccc1Nc1c(F)cccc1C(=O)O` [Example 16, 3-Fluoro-2-(4-iodo-2-methyl-phenylamino)-benzoic acid], the half-inhibitory concentration (IC50) turned out to be 323 nM.
`COc1cc(I)ccc1Nc1c(C(=O)O)ccc(F)c1F` [Example 17, 3,4-Difluoro-2-(4-iodo-2-methoxy-phenylamino)-benzoic acid] showed an IC50 of 434 nM.
Then `Cc1cc(I)ccc1Nc1cc(Cl)ccc1C(=O)O` [Example 18, 4-Chloro-2-(4-iodo-2-methyl-phenylamino)-benzoic acid], with 446 nM; and `Cc1cc(I)ccc1Nc1ccccc1C(=O)O` [Example 19, 2-(4-Iodo-2-methyl-phenylamino)-benzoic acid], with 524 nM; and `Cc1cc(I)ccc1Nc1ccc(F)cc1C(=O)O` [Example 20, 5-Fluoro-2-(4-iodo-2-methyl-phenylamino)-benzoic acid], with 557 nM.
To `Cc1cc(I)ccc1Nc1ccc(I)cc1C(=O)O` [Example 21, 5-Iodo-2-(4-iodo-2-methyl-phenylamino)-benzoic acid] belongs 569 nM; to `Cc1cc(I)ccc1Nc1c(F)cc(C(=O)O)c(F)c1F` [Example 22, 2,3,5-Trifluoro-4-(4-iodo-2-methyl-phenylamino)-benzoic acid], 1581 nM.
Then `Cc1c(Nc2cc(F)ccc2C(=O)O)ccc(I)c1Cl` [Example 23, 4-Fluoro-2-(3-chloro-4-iodo-2-methyl-phenylamino) benzoic acid], with 1588 nM; and `COc1ccc(Nc2ccc(I)cc2)c(C(=O)O)c1` [Example 24, 2-(4-Iodo-phenylamino)-5-methoxy-benzoic acid], with 1944 nM.
Compound `O=C(O)c1cccc(Cl)c1Nc1ccc(I)cc1Cl` [Example 25, 3-Chloro-2-(2-chloro-4-iodo-phenylamino)-benzoic acid] showed an IC50 of 2363 nM.
Then `Cc1cc(I)ccc1Nc1cccc(F)c1C(=O)O` [Example 26, 2-Fluoro-6-(4-iodo-2-methyl-phenylamino)-benzoic acid], with 2609 nM; and `Cc1ccc(Nc2ccc(I)cc2C)c(C(=O)O)c1` [Example 28, 5-Methyl-2-(4-iodo-2-methyl-phenylamino)-benzoic acid], with 3670 nM.
Then `Cc1cc(I)ccc1Nc1cccc(Cl)c1C(=O)O` [Example 29, 2-Chloro-6-(4-iodo-2-methyl-phenylamino)-benzoic acid], with 5331 nM.
Then `COc1ccc(NC(=O)c2ccc(OC)c([N+](=O)[O-])c2)cc1` [Example 32, 4-Methoxy-N-(4-methoxy-phenyl)-3-nitro-benzamide], with 28 nM; and `Cc1cc(I)ccc1Nc1cc(F)ccc1C(N)=O` [Example 33, 4-Fluoro-2-(4-iodo-2-methyl-phenylamino)-benzaniide], with 52 nM; and `CNC(=O)c1ccc(F)cc1Nc1ccc(I)cc1C` [Example 34], with 98 nM.
Turning to `CCNC(=O)c1ccc(F)cc1Nc1ccc(I)cc1C` [Example 35, N-Ethyl-4-fluoro-2-(4-iodo-2-methyl-phenylamino)-benzamide], the IC50 turned out to be 121 nM.
On to `Cc1cc(I)ccc1Nc1cc(F)ccc1C(=O)N(C)C` [Example 36, 4-Fluoro-2-(4-iodo-2-methyl-phenylamino)-N,N-dimethyl-benzamide], for which the IC50 is 129 nM.
To `Cc1cc(I)ccc1Nc1cc(F)ccc1C(=O)Nc1nnn[nH]1` [Example 37, 4-Fluoro-2-(4-iodo-2-methyl-phenylamino)-N-(1H-tetrazol-5-yl)-benzamide] belongs 237 nM; to `Cc1cc(I)ccc1Nc1ccc(Br)cc1C(N)=O` [Example 38, 5-Bromo-2-(4-iodo-2-methyl-phenylamino)-benzamide], 412 nM; to `Cc1cc(I)ccc1Nc1ccc(Cl)cc1C(=O)N(C)C` [Example 39, 5-Chloro-2-(4-iodo-2-methyl-phenylamino)-N,N-dimethyl-benzamide], 497 nM.
Then `CCCNC(=O)c1ccc(F)cc1Nc1ccc(I)cc1C` [Example 41, 4-Fluoro-2-(4-iodo-2-methyl-phenylamino)-N-propyl-benzamide], with 872 nM; and `Cc1cc(I)ccc1Nc1ccc(Br)cc1C(=O)NCCO` [Example 42, 5-Bromo-N-(2-hydroxy-ethyl)-2-(4-iodo-2-methyl-phenylamino)-benzamide], with 920 nM; and `Cc1cc(I)ccc1Nc1cc(F)ccc1C(=O)NCCCN1CCN(CCO)CC1` [Example 44, 4-Fluoro-N-{3-[4-(2-hydroxy-ethyl)-piperazin-1-yl]-propyl}-2-(4-iodo-2-methyl-phenylamino)-benzamide], with 1481 nM.
`CCN(CC)C(=O)c1cc([N+](=O)[O-])ccc1Nc1ccc(I)cc1C` [Example 45, N,N-Diethyl-2-(4-iodo-2-methyl-phenylamino)-5-nitro-benzamide] came in with an IC50 of 1755 nM.
Then `CCCCNC(=O)c1ccc(F)cc1Nc1ccc(I)cc1C` [Example 46, N-Butyl-4-fluoro-2-(4-iodo-2-methyl-phenylamino)-benzamide], with 1814 nM.
To `CCN(CC)C(=O)c1cc(Cl)ccc1Nc1ccc(I)cc1C` [Example 47, 5-Chloro-N,N-diethyl-2-(4-iodo-2-methyl-phenylamino)-benzamide] belongs 1911 nM.
Then `Cc1cc(I)ccc1Nc1ccc(Br)cc1C(=O)N(C)C` [Example 48], with 1945 nM; and `Cc1cc(I)ccc1Nc1ccc([N+](=O)[O-])cc1CO` [Example 51, [2-(4-Iodo-2-methyl-phenylamino)-5-nitro-phenyl]-methanol], with 887 nM.
Consider `Cc1cc(I)ccc1Nc1ccc(Br)cc1CO` [Example 52, [5-Bromo-2-(4-iodo-2-methyl-phenylamino)-phenyl]-methanol], for which the IC50 stood at 2346 nM.
Then `Cc1cc(I)ccc1Nc1c(C(=O)NCC(O)CO)ccc(F)c1F` (stereo not shown) [Example 54, N-(2,3-Dihydroxy-propyl)-3,4-difluoro-2-(4-iodo-2-methyl-phenylamino)-benzamide], with 158 nM.

Values taken from patent publication US20020022647A1, “2-(4-bromo or 4-iodo phenylamino) benzoic acid derivatives” (priority 1997, published 2002).
